# Results reported in BindingDB's records for doi:10.1016/0014-2999(88)90492-x (Novo Industri, 1988).
# Counter-ions that a name gives are not always drawn.
# Assays:
# D(2) dopamine receptor = D(2) dopamine receptor (Mus musculus, UniProt P61168)
# D(1A) dopamine receptor = D(1A) dopamine receptor (Mus musculus, UniProt Q61616)
# Sequence of D(1A) dopamine receptor (Q61616 whole entry): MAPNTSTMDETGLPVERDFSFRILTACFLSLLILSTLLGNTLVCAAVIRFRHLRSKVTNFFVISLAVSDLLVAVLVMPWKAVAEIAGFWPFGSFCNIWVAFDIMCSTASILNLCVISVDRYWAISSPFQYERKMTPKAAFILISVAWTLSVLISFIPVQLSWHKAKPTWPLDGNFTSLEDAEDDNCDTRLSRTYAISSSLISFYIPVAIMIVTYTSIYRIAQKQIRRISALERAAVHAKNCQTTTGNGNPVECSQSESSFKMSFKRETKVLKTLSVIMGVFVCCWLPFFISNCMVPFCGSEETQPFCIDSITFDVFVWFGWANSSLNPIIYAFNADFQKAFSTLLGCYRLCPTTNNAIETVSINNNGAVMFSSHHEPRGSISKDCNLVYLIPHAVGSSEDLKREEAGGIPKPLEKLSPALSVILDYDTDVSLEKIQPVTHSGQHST
# Sequence of D(2) dopamine receptor (P61168 whole entry): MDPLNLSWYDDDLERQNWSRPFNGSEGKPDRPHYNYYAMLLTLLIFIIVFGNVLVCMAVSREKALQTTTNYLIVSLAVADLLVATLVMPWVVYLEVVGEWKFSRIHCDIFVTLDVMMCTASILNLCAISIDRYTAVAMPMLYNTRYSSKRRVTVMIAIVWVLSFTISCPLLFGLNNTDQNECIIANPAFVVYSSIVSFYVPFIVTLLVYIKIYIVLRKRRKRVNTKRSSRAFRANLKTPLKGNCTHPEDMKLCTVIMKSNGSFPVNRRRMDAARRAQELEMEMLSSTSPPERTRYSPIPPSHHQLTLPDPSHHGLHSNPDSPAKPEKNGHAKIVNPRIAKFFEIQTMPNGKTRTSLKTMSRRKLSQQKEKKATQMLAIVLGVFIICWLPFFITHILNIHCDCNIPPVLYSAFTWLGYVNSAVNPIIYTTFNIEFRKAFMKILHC
SMILES,Ki (D(2) dopamine receptor),Ki (D(1A) dopamine receptor)
CN1CCN(C2=Nc3cc(F)ccc3Cc3ccccc32)CC1,245 nM,85 nM
OCCN1CCN(CCCN2c3ccccc3Sc3ccc(C(F)(F)F)cc32)CC1 [2-[4-[3-[2-(trifluoromethyl)phenothiazin-10-yl]propyl]piperazin-1-yl]ethanol;hydrochloride],–,4.5 nM
"CCN1CCC[C@H]1CNC(=O)c1c(O)c(Cl)cc(Cl)c1OC [3,5-Dichloro-N-(1-ethyl-pyrrolidin-2-ylmethyl)-2-hydroxy-6-methoxy-benzamide (raclopride)]",4.8 nM,> 10000 nM
"CN1CCN(C2=Nc3ccccc3Oc3ccc(Cl)cc32)CC1 [13-chloro-10-(4-methylpiperazin-1-yl)-2-oxa-9-azatricyclo[9.4.0.0^{3,8}]pentadeca-1(11),3,5,7,9,12,14-heptaene]",7.6 nM,16 nM
CN1CCN(C2=Nc3cc(Cl)ccc3Cc3sccc32)CC1 [CAS_42239-60-1],27 nM,17 nM
CCc1c(C)[nH]c2c1C(=O)C(CN1CCOCC1)CC2 (centres undefined) [Moban],56 nM,> 10000 nM
CCN1CCCC1CNC(=O)c1cc(S(N)(=O)=O)ccc1OC (centres undefined) [N-[(1-ethylpyrrolidin-2-yl)methyl]-2-methoxy-5-sulfamoylbenzamide],70 nM,–
"O=C(O)c1ccccc1C(=O)Nc1cccc2ccccc12 [NPA,(+)]",4.1 nM,480 nM
